Reference: PubChem BioAssay (NCI)
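Five concentrations, 48 hours, 96-well plates. Here, GI50 denotes the concentration required for 50% inhibition of growth. TGI: concentration producing complete growth inhibition.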

Experiments:
Assay in all cases: NCI anticancer screen, dose series, 48 h
HOP-62 NSCLC = test system: HOP-62 NSCLC
SK-OV-3 ovarian = test system: SK-OV-3 ovarian
HT29 colon = test system: HT29 colon
MCF7 breast = test system: MCF7 breast
LOX IMVI melanoma = test system: LOX IMVI melanoma
HCT-15 colon = test system: HCT-15 colon
SNB-75 CNS = test system: SNB-75 CNS
MDA-MB-435 = test system: MDA-MB-435
EKVX NSCLC = test system: EKVX NSCLC
MDA-N = test system: MDA-N
PC-3 prostate = test system: PC-3 prostate

Row | Compound | TGI (HOP-62 NSCLC) [µM] | TGI (SK-OV-3 ovarian) [µM] | TGI (HT29 colon) [µM] | TGI (MCF7 breast) [µM] | TGI (LOX IMVI melanoma) [µM] | TGI (HCT-15 colon) [µM] | TGI (SNB-75 CNS) [µM] | TGI (MDA-MB-435) [µM] | TGI (EKVX NSCLC) [µM] | TGI (MDA-N) [µM] | TGI (PC-3 prostate) [µM] | GI50 (SNB-75 CNS) [µM]
1 | O=C(O)CN1C(=O)C(Cc2ccc(O)cc2)N=C(c2cccc(O)c2)c2ccccc21 (centres undefined) | > 100 | > 100 | > 100 | > 100 | > 100 | > 100 | > 100 | > 100 | > 100 | 26 | > 100 | –
2 | O=C1C(c2c(O)[nH]c3ccc(Br)cc23)=Nc2ccccc21 | 32.6 | 40.9 | 15 | 3.72 | 25.8 | > 100 | 28.4 | 40.1 | 20.2 | 34.8 | 17.8 | –
3 | CC(=O)OCC1OC(n2c(-c3ccc(C)cc3)cc(-c3ccccc3)c(C#N)c2=S)C(OC(C)=O)C(OC(C)=O)C1OC(C)=O (centres undefined) | > 100 | > 100 | > 100 | > 100 | > 100 | > 100 | > 100 | > 100 | > 100 | > 100 | > 100 | –
4 | O=[N+]([O-])c1ccc(N/N=C/c2ccc(OCCCCCCCCCCCO)cc2)c([N+](=O)[O-])c1 | 19.6 | 11.6 | > 100 | > 93.6 | 59.7 | > 100 | 4.27 | 11.7 | 52.1 | 13 | 14.7 | –
5 | COCN1C(=O)[C@@H]2CCCN2C(=O)c2cc(N)ccc21 | > 100 | > 100 | > 100 | > 100 | > 100 | > 100 | > 100 | > 100 | > 100 | > 100 | > 100 | –
6 | CCCCn1c2c(n(CCCC)c1=S)-c1c(n(CCCC)c(=S)n1CCCC)SSc1c(n(CCCC)c(=S)n1CCCC)-c1c(n(CCCC)c(=S)n1CCCC)SSc1c(n(CCCC)c(=S)n1CCCC)-c1c(n(CCCC)c(=S)n1CCCC)SS2 | > 50 | > 50 | > 46.6 | 48 | 13.3 | 30.4 | > 50 | > 42.1 | > 50 | > 46 | 18.9 | –
7 | C/C(=N\NC(=S)NCCCNC(=S)N/N=C(\C)c1ccccn1)c1ccccn1 | 20.7 | > 35.1 | > 100 | > 50.6 | > 51.2 | > 30.7 | 31.7 | > 43.5 | > 63.9 | > 100 | > 91.5 | –
8 | Cc1ccccc1S(=O)(=O)Nn1cnc2ccc(S(=O)(=O)Nc3ccc(Cl)cc3)cc2c1=O | > 100 | > 100 | > 100 | > 100 | > 100 | > 100 | > 100 | > 100 | > 100 | > 100 | > 100 | –
9 | Cc1ccnc(NC(NC(=O)c2ccccc2)(C(F)(F)F)C(F)(F)F)c1 | > 100 | > 100 | > 100 | > 100 | > 100 | > 100 | > 100 | > 100 | > 100 | > 100 | > 100 | –
10 | N#Cc1cnc(N)nc1NCC1(CO)CC(CCc2ccccc2)C1 (centres undefined) | > 100 | > 100 | > 100 | > 100 | > 100 | > 100 | > 83.1 | > 100 | > 100 | > 100 | > 100 | –
11 | O=C(NCCCCCCNC(=O)c1cc(-c2ccccc2)nc2ccccc12)c1cc(-c2ccccc2)nc2ccccc12 | > 100 | > 100 | > 100 | > 100 | > 100 | > 100 | > 100 | > 100 | > 100 | > 100 | > 100 | –
12 | Cc1cc(S(=O)(=O)Nc2nc3ccccc3c(=O)n2N)c(S)cc1Cl | 79.7 | > 100 | > 100 | > 100 | > 100 | > 100 | 92.7 | > 100 | > 100 | > 100 | > 100 | 13.3
13 | COC(=O)C(CCSC)NC(=O)Cc1ccc(C(=O)c2ccccc2)cc1 (centres undefined) | > 100 | > 100 | 65.5 | > 100 | > 100 | > 100 | > 100 | 93.6 | > 100 | 35.1 | > 100 | –
14 | CCCCCCCCCCNC(=O)CCC(NC(=O)c1ccc(N(C)Cc2cnc3nc(N)nc(N)c3n2)cc1)C(=O)NCCCCCCCCCC (centres undefined) | > 95.7 | 65.3 | 35.2 | 15.3 | 5.81 | > 100 | 32.1 | 15.4 | > 78.3 | 21.9 | 37.8 | –
15 | Nc1onc2c1Cc1c(noc1N)-c1ccccc1-2 | > 100 | > 100 | > 100 | > 100 | > 100 | > 100 | 95.1 | > 100 | 66.1 | > 100 | > 100 | –
16 | C=C(Br)CNC(=O)CCC(=O)NCC(=C)Br | > 100 | > 100 | > 100 | > 100 | > 100 | > 100 | > 100 | > 100 | > 100 | > 100 | > 100 | –
17 | NC(N)=Nc1ccc(CC(N)C(=O)O)cc1 (centres undefined) | > 12.5 | > 12.5 | > 12.5 | > 12.5 | > 12.5 | > 12.5 | > 12.5 | > 12.5 | > 12.5 | > 12.5 | > 12.5 | –
18 | COc1ccc2c(c1)CCc1c-2n(CCN2CCCCC2)c2ccc(OC)cc12 | > 100 | > 100 | > 100 | > 100 | > 100 | > 100 | > 100 | > 100 | > 100 | > 100 | > 100 | –
